The values below are quoted from earlier work in US10617673B2, “Cannabinoid receptor antagonists/inverse agonists useful for treating metabolic disorders, including obesity and diabetes” (Jenrin Discovery, LLC, priority 2012, dated 2020).

The conditions of this data set: type 2 diabetes patients not on other anti-diabetic medications, after six months, baseline value 7.9.

Molecules are shown by their SMILES.

For `Cc1c(C(=O)NN2CCCCC2)nn(-c2ccc(Cl)cc2Cl)c1-c1ccc(Cl)cc1` [rimonabant], the HbA1c levels lowered is reported as 0.8%.
